Source: ChEMBL document CHEMBL3046197, “Relation between Penetration Rates of Pesticides and Partition Coefficients in Topical Application to Spodoptera litura” (J Pestic Sci, 2001)

Columns and labels:
[1] = tested on: Spodoptera litura; assay: Drug uptake in Spodoptera litura assessed as surface residue level 0.2 ug/insect after 24 hr; type: ADME, organism-based; details: in vivo, topical_or_ocular
[2] = tested on: Spodoptera litura; assay: Drug uptake in Spodoptera litura assessed as surface residue level 0.2 ug/insect after 8 hr; type: ADME, organism-based; details: in vivo
[3] = tested on: Spodoptera litura; assay: Drug uptake in Spodoptera litura assessed as unchanged drug level 0.2 ug/insect after 8 hr; type: ADME, organism-based; details: in vivo
[4] = tested on: Spodoptera litura; assay: Drug uptake in Spodoptera litura assessed as surface residue level 0.2 ug/insect after 3 hr; type: ADME, organism-based; details: in vivo
[5] = tested on: Spodoptera litura; assay: Drug uptake in Spodoptera litura assessed as recovered drug level 0.2 ug/insect after 8 hr; type: ADME, organism-based; details: in vivo
[6] = tested on: Spodoptera litura; assay: Drug uptake in Spodoptera litura assessed as recovered drug level 0.2 ug/insect after 3 hr; type: ADME, organism-based; details: in vivo
[7] = tested on: Spodoptera litura; assay: Drug uptake in Spodoptera litura assessed as penetrated drug level 0.2 ug/insect after 8 hr; type: ADME, organism-based; details: in vivo
[8] = tested on: Spodoptera litura; assay: Drug uptake in Spodoptera litura assessed as penetrated drug level 0.2 ug/insect after 3 hr; type: ADME, organism-based; details: in vivo
[9] = tested on: Spodoptera litura; assay: Drug uptake in Spodoptera litura assessed as unchanged drug level 0.2 ug/insect after 3 hr; type: ADME, organism-based; details: in vivo
[10] = tested on: Spodoptera litura; assay: Drug uptake in Spodoptera litura assessed as unchanged drug level 0.2 ug/insect after 1 hr; type: ADME, organism-based; details: in vivo
[11] = tested on: Spodoptera litura; assay: Drug uptake in Spodoptera litura assessed as surface residue level 0.2 ug/insect after 6 hr; type: ADME, organism-based; details: in vivo
[12] = tested on: Spodoptera litura; assay: Drug uptake in Spodoptera litura assessed as recovered drug level 0.2 ug/insect after 6 hr; type: ADME, organism-based; details: in vivo
[13] = tested on: Spodoptera litura; assay: Drug uptake in Spodoptera litura assessed as recovered drug level 0.2 ug/insect after 1 hr; type: ADME, organism-based; details: in vivo
[14] = tested on: Spodoptera litura; assay: Drug uptake in Spodoptera litura assessed as penetrated drug level 0.2 ug/insect after 6 hr; type: ADME, organism-based; details: in vivo
[15] = tested on: Spodoptera litura; assay: Drug uptake in Spodoptera litura assessed as penetrated drug level 0.2 ug/insect after 1 hr; type: ADME, organism-based; details: in vivo
[16] = tested on: Spodoptera litura; assay: Drug uptake in Spodoptera litura assessed as surface residue level 0.2 ug/insect after 1 hr; type: ADME, organism-based; details: in vivo
[17] = tested on: Spodoptera litura; assay: Drug uptake in Spodoptera litura assessed as surface residue level 0.2 ug/insect after 0.5 hr; type: ADME, organism-based; details: in vivo, topical_or_ocular
[18] = Octanol-water partition coefficient, log P of the compound by shake-flask method; type: physicochemical
[19] = tested on: Spodoptera litura; assay: Drug uptake in Spodoptera litura assessed as recovered drug level 0.2 ug/insect after 0.5 hr; type: ADME, organism-based; details: in vivo
[20] = tested on: Spodoptera litura; assay: Drug uptake in Spodoptera litura assessed as penetrated drug level 0.2 ug/insect after 0.5 hr; type: ADME, organism-based; details: in vivo
[21] = tested on: Spodoptera litura; assay: Drug uptake in Spodoptera litura assessed as unchanged drug level 0.2 ug/insect after 0.5 hr; type: ADME, organism-based; details: in vivo
[22] = tested on: Spodoptera litura; assay: Drug uptake in Spodoptera litura assessed as surface residue level 0.2 ug/insect after 4 hr; type: ADME, organism-based; details: in vivo
[23] = tested on: Spodoptera litura; assay: Drug uptake in Spodoptera litura assessed as recovered drug level 0.2 ug/insect after 24 hr; type: ADME, organism-based; details: in vivo
[24] = tested on: Spodoptera litura; assay: Drug uptake in Spodoptera litura assessed as recovered drug level 0.2 ug/insect after 4 hr; type: ADME, organism-based; details: in vivo
[25] = tested on: Spodoptera litura; assay: Drug uptake in Spodoptera litura assessed as penetrated drug level 0.2 ug/insect after 24 hr; type: ADME, organism-based; details: in vivo
[26] = tested on: Spodoptera litura; assay: Drug uptake in Spodoptera litura assessed as penetrated drug level 0.2 ug/insect after 4 hr; type: ADME, organism-based; details: in vivo
[27] = tested on: Spodoptera litura; assay: Drug uptake in Spodoptera litura assessed as unchanged drug level 0.2 ug/insect after 4 hr; type: ADME, organism-based; details: in vivo
[28] = tested on: Spodoptera litura; assay: Drug uptake in Spodoptera litura assessed as surface residue level 0.2 ug/insect after 16 hr; type: ADME, organism-based; details: in vivo, topical_or_ocular
[29] = tested on: Spodoptera litura; assay: Drug uptake in Spodoptera litura assessed as recovered drug level 0.2 ug/insect after 16 hr; type: ADME, organism-based; details: in vivo
[30] = tested on: Spodoptera litura; assay: Drug uptake in Spodoptera litura assessed as penetrated drug level 0.2 ug/insect after 16 hr; type: ADME, organism-based; details: in vivo
[31] = tested on: Spodoptera litura; assay: Drug uptake in Spodoptera litura assessed as surface residue level 0.2 ug/insect after 2 hr; type: ADME, organism-based; details: in vivo
[32] = tested on: Spodoptera litura; assay: Drug uptake in Spodoptera litura assessed as recovered drug level 0.2 ug/insect after 2 hr; type: ADME, organism-based; details: in vivo
[33] = tested on: Spodoptera litura; assay: Drug uptake in Spodoptera litura assessed as penetrated drug level 0.2 ug/insect after 2 hr; type: ADME, organism-based; details: in vivo
[34] = tested on: Spodoptera litura; assay: Drug uptake in Spodoptera litura assessed as unchanged drug level 0.2 ug/insect after 2 hr; type: ADME, organism-based; details: in vivo

## CC(C)(C)N(NC(=O)c1ccccc1)C(=O)c1ccccc1 [RH-5849]
[1]
  Drug uptake: 50.2%
[2]
  Drug uptake: 52.3%
[3]
  Drug recovery: 38.4%

## CCOP(=S)(Oc1ccc(C#N)cc1)c1ccccc1 (centres undefined) [CYANOFENPHOS]
[2]
  Drug uptake: 11.3%
[4]
  Drug uptake: 39.9%
[5]
  Drug recovery: 96%
[6]
  Drug recovery: 96.4%
[7]
  Drug uptake: 84.6%
[8]
  Drug uptake: 56.5%
[9]
  Drug uptake: 37.4%

## CCOP(=S)(OCC)Oc1ccc([N+](=O)[O-])cc1 [PARATHION]
[10]
  Drug uptake: 56.8%
[11]
  Drug uptake: 10.9%
[12]
  Drug recovery: 89.8%
[13]
  Drug recovery: 95.6%
[14]
  Drug uptake: 78.9%
[15]
  Drug uptake: 35%
[16]
  Surface residue: 60.6%

## COP(=S)(OC)Oc1ccc([N+](=O)[O-])c(C)c1 [FENITROTHION]
[10]
  Drug uptake: 40.9%
[11]
  Drug uptake: 10.8%
[12]
  Drug recovery: 81.8%
[13]
  Drug recovery: 94.8%
[14]
  Drug uptake: 71%
[15]
  Drug uptake: 51.2%
[16]
  Surface residue: 43.6%

## COP(=O)(OC)Oc1ccc(C#N)cc1 [CYANOPHOS-OXON]
[17]
  Drug uptake: 34.5%
[18]
  logP: 0.84
[19]
  Drug recovery: 89.9%
[13]
  Drug recovery: 96.7%
[20]
  Drug uptake: 55.4%
[15]
  Drug uptake: 65.5%
[21]
  Drug uptake: 29.3%
[16]
  Surface residue: 31.2%

## COP(=S)(OC)Oc1ccc(C#N)cc1 [CYANOPHOS]
[10]
  Drug uptake: 34.3%
[11]
  Drug uptake: 8.1%
[18]
  logP: 2.65
[12]
  Drug recovery: 80.9%
[13]
  Drug recovery: 76.6%
[14]
  Drug uptake: 72.8%
[15]
  Drug uptake: 39.2%
[16]
  Surface residue: 37.4%

## COP(=O)(OC)Oc1ccc([N+](=O)[O-])c(C)c1 [FENITROXON]
[4]
  Drug uptake: 25.3%
[17]
  Drug uptake: 44.9%
[6]
  Drug recovery: 87.8%
[19]
  Drug recovery: 96.4%
[8]
  Drug uptake: 62.4%
[20]
  Drug uptake: 51.5%
[21]
  Drug uptake: 42.7%

## CC(COc1ccc(Oc2ccccc2)cc1)Oc1ccccn1 (centres undefined) [PYRIPROXYFEN]
[1]
  Drug uptake: 7.6%
[22]
  Drug uptake: 56.4%
[18]
  logP: 5.31
[23]
  Drug recovery: 84%
[24]
  Drug recovery: 96.7%
[25]
  Drug uptake: 76.4%
[26]
  Drug uptake: 40.3%
[27]
  Drug uptake: 55.3%

## CCOc1ccc(NC(=O)OC(C)C)cc1OCC [DIETHENOFENCARB]
[28]
  Drug uptake: 18.1%
[4]
  Drug uptake: 56.6%
[18]
  logP: 3.02
[29]
  Drug recovery: 81.7%
[6]
  Drug recovery: 88.5%
[30]
  Drug uptake: 63.5%
[8]
  Drug uptake: 31.9%
[9]
  Drug uptake: 52.6%

## CC(C)=C[C@@H]1[C@@H](C(=O)OCN2C(=O)C3=C(CCCC3)C2=O)C1(C)C [(1R)-TRANS-TETRAMETHRIN]
[28]
  Drug uptake: 44.9%
[2]
  Drug uptake: 63.7%
[18]
  logP: 4.73
[29]
  Drug recovery: 80.1%
[5]
  Drug recovery: 84.9%
[30]
  Drug uptake: 35.2%
[7]
  Drug uptake: 21.2%
[3]
  Drug uptake: 60.3%

## CC1(C)C(C(=O)OC(C#N)c2cccc(Oc3ccccc3)c2)C1(C)C (centres undefined) [FENPROPATHRIN]
[31]
  Drug uptake: 68.8%
[22]
  Drug uptake: 69.2%
[18]
  logP: 6
[32]
  Drug recovery: 90.8%
[24]
  Drug recovery: 82.3%
[33]
  Drug uptake: 22%
[26]
  Drug uptake: 13.1%
[34]
  Drug uptake: 66.5%
